Experimental data: patent publication US20120095024A1, “TOLUIDINE SULFONAMIDES AND THEIR USE” (Elara Pharmaceuticals GmbH, priority 2008, published 2012)

Test system: MCF7 cells
Test: Cell proliferation assay (ATPlite), MCF-7
Assay type: cell-based, human
Settings: Homo sapiens, inhibition of cell proliferation, 72 h
Protocol: MCF-7 human breast adenocarcinoma cells and HL-60 acute promyelocytic leukaemia cells were obtained from ATCC (LGC Promochem). HG-1 multiple myeloma cells were obtained from Dr. D. Hose (DKFZ Heidelberg). The CellSensor® HRE-bla HCT116 cell line (colorectal carcinoma) was obtained from Invitrogen.
Cells were grown under humidified 95% air, 5% CO2 at 37° C. in Dulbecco's modified Eagle's medium (DMEM: MCF-7) or RPMI 1640 medium (RPMI: HL-60, HG-1) supplemented with 10% fetal bovine serum (FBS), 100 U/ml penicillin and 100 μg/ml streptomycin, 2 mM L-glutamine, and 2 ng/ml IL-6 (for the HG-1 cell line only). The HCT116 cell line was grown under the same atmospheric conditions in McCoy's 5A medium supplemented with 10% FBS and penicillin/streptomycin as above, in addition to blasticidin as a selection marker at a final concentration of 5 μg/ml.
Cell proliferation experiments were carried out in 96-well tissue culture plates with seeding of 2000 cells/well (MCF-7) or 1000 cells/well (HL-60, HG-1) in 100 μl of the relevant medium. Cells were subsequently incubated under the conditions mentioned for 24 h prior to addition of compounds.
For the determination of compound EC50 values, 10 μl compounds at 11× concentrations in 5.5% DMSO were added to the wells at various concentrations yielding a final constant percentage of 0.5% DMSO at the desired 1× compound concentration. As a positive control, cells were treated with 5.5% DMSO. The cells were then incubated for a further 72 h prior to the measurement.
To determine the degree of inhibition of cell proliferation, cells were treated with ATPlite solution according to the manufacturer's instructions (PerkinElmer, ATPlite 1-step Luminescence ATP Detection Assay System) and luciferase readout measured on an Envision HTS multilabel plate reader (PerkinElmer) in luminescence mode according to established protocols. Raw data were imported into an ActivityBase database (IDBS, ID Business Solutions) and EC50 values calculated using the IDBS program ActivityBase XE. Table 2A and 2B show the IC50 values obtained in the above-outlined cell proliferation assay for exemplary compounds of the invention.

EC50 | Compound
1000 to 10000 nM | Cc1ccc(S(=O)(=O)Nc2cc(-c3nnn[nH]3)ccc2C)cc1 [Example 1, 4-Methyl-N-[2-methyl-5-(1H-tetrazol-5-yl)-phenyl]-benzenesulfonamide]
1000 to 10000 nM | Cc1ccc(S(=O)(=O)Nc2cc(-n3cnnn3)ccc2C)cc1 [Example 2, 4-Methyl-N-(2-methyl-5-tetrazol-1-yl-phenyl)-benzenesulfonamide]
1000 to 10000 nM | Cc1ccc(S(=O)(=O)Nc2cc(-c3nnn(C)n3)ccc2C)cc1 [Example 6, 4-Methyl-N-[2-methyl-5-(2-methyl-2H-tetrazol-5-yl)-phenyl]-benzenesulfonamide]
500 to 1000 nM | Cc1ccc(S(=O)(=O)Nc2cc(-c3cccc(C)c3)ccc2C)cc1 [Example 7, N-(4,3′-Dimethyl-biphenyl-3-yl)-4-methyl-benzenesulfonamide]
500 to 1000 nM | COc1cccc(-c2ccc(C)c(NS(=O)(=O)c3ccc(C)cc3)c2)n1 [Example 9, N-[5-(6-Methoxy-pyridin-2-yl)-2-methyl-phenyl]-4-methyl-benzenesulfonamide]
1000 to 10000 nM | Cc1ccc(-c2ccc(C)c(NS(=O)(=O)c3ccc(C)cc3)c2)cc1 [Example 10, N-(4,4′-Dimethyl-biphenyl-3-yl)-4-methyl-benzenesulfonamide]
< 500 nM | Cc1ccc(S(=O)(=O)Nc2cc(-c3sc(C)nc3C)ccc2C)cc1 [Example 12, N-[5-(2,4-Dimethyl-thiazol-5-yl)-2-methyl-phenyl]-4-methyl-benzenesulfonamide]
1000 to 10000 nM | COc1ccc(S(=O)(=O)Nc2cc(-c3cc(C)sc3C)ccc2C)cc1 [Example 13, N-[5-(2,5-Dimethyl-thiophen-3-yl)-2-methyl-phenyl]-4-methoxy-benzenesulfonamide]
< 500 nM | COc1ccc(S(=O)(=O)Nc2cc(-c3ccsc3)ccc2C)cc1 [Example 14, 4-Methoxy-N-(2-methyl-5-thiophen-3-yl-phenyl)-benzenesulfonamide]
< 500 nM | COc1ccc(S(=O)(=O)Nc2cc(-c3ccsc3C)ccc2C)cc1 [Example 17, 4-Methoxy-N-[2-methyl-5-(2-methyl-thiophen-3-yl)-phenyl]-benzenesulfonamide]
1000 to 10000 nM | COc1ccc(-c2ccc(C)c(NS(=O)(=O)c3ccc(C)cc3)c2)cn1 [Example 18, N-[5-(6-Methoxy-pyridin-3-yl)-2-methyl-phenyl]-4-methyl-benzenesulfonamide]
< 500 nM | COc1ccc(S(=O)(=O)Nc2cc(-c3cnco3)ccc2C)cc1 [Example 20, 4-Methoxy-N-(2-methyl-5-oxazol-5-yl-phenyl)-benzenesulfonamide]
< 500 nM | COc1ccc(S(=O)(=O)Nc2cc(-n3cccc3)ccc2C)cc1 [Example 21, 4-Methoxy-N-(2-methyl-5-pyrrol-1-yl-phenyl)-benzenesulfonamide]
< 500 nM | Cc1ccc(S(=O)(=O)Nc2cc(-c3sccc3C)ccc2C)cc1 [Example 24, 4-Methyl-N-[2-methyl-5-(3-methyl-thiophen-2-yl)-phenyl]-benzenesulfonamide]
< 500 nM | Cc1ccc(S(=O)(=O)Nc2cc(-c3ccoc3C)ccc2C)cc1 [Example 25, 4-Methyl-N-[2-methyl-5-(2-methyl-furan-3-yl)-phenyl]-benzenesulfonamide]
1000 to 10000 nM | COc1cccnc1-c1ccc(C)c(NS(=O)(=O)c2ccc(C)cc2)c1 [Example 26, N-[5-(3-Methoxy-pyridin-2-yl)-2-methyl-phenyl]-4-methyl-benzenesulfonamide]
1000 to 10000 nM | Cc1ccc(S(=O)(=O)Nc2cc(-c3ncccc3C(F)(F)F)ccc2C)cc1 [Example 27, 4-Methyl-N-[2-methyl-5-(3-trifluoromethyl-pyridin-2-yl)-phenyl]-benzenesulfonamide]

EC50 | Compound
1000 to 10000 nM | Cc1ccc(S(=O)(=O)Nc2cc(-c3ncccc3C)ccc2C)cc1 [Example 28, 4-Methyl-N-[2-methyl-5-(3-methyl-pyridin-2-yl)-phenyl]-benzenesulfonamide]
1000 to 10000 nM | Cc1ccc(S(=O)(=O)Nc2cc(-n3c(C)ccc3C)ccc2C)cc1 [Example 29, N-[5-(2,5-Dimethyl-pyrrol-1-yl)-2-methyl-phenyl]-4-methyl-benzenesulfonamide]
< 500 nM | COc1ccc(S(=O)(=O)Nc2cc(-n3ccc(C)n3)ccc2C)cc1 [Example 30, 4-Methoxy-N-[2-methyl-5-(3-methyl-pyrazol-1-yl)-phenyl]-benzenesulfonamide]
1000 to 10000 nM | Cc1ccc(S(=O)(=O)Nc2cc(-c3cc(C)ccn3)ccc2C)cc1 [Example 31, 4-Methyl-N-[2-methyl-5-(4-methyl-pyridin-2-yl)-phenyl]-benzenesulfonamide]
1000 to 10000 nM | Cc1ccc(S(=O)(=O)Nc2cc(-c3ccc(C)cn3)ccc2C)cc1 [Example 32, 4-Methyl-N-[2-methyl-5-(5-methyl-pyridin-2-yl)-phenyl]-benzenesulfonamide]
500 to 1000 nM | Cc1ccc(S(=O)(=O)Nc2cc(-c3cccc(C)n3)ccc2C)cc1 [Example 33, 4-Methyl-N-[2-methyl-5-(6-methyl-pyridin-2-yl)-phenyl]-benzenesulfonamide]
< 500 nM | Cc1ccc(S(=O)(=O)Nc2cc(-c3cncc(C#N)c3)ccc2C)cc1 [Example 34, N-[5-(5-Cyano-pyridin-3-yl)-2-methyl-phenyl]-4-methyl-benzenesulfonamide]
1000 to 10000 nM | COc1cncc(-c2ccc(C)c(NS(=O)(=O)c3ccc(C)cc3)c2)c1 [Example 35, N-[5-(5-Methoxy-pyridin-3-yl)-2-methyl-phenyl]-4-methyl-benzenesulfonamide]
1000 to 10000 nM | COc1cc(C)c(-c2ccc(C)c(NS(=O)(=O)c3ccc(C)cc3)c2)cn1 [Example 36, N-[5-(6-Methoxy-4-methyl-pyridin-3-yl)-2-methyl-phenyl]-4-methyl-benzenesulfonamide]
1000 to 10000 nM | CCOc1ccc(-c2ccc(C)c(NS(=O)(=O)c3ccc(C)cc3)c2)cn1 [Example 37, N-[5-(6-Ethoxy-pyridin-3-yl)-2-methyl-phenyl]-4-methyl-benzenesulfonamide]
1000 to 10000 nM | Cc1ccc(S(=O)(=O)Nc2cc(-c3cc(C(F)(F)F)ccn3)ccc2C)cc1 [Example 38, 4-Methyl-N-[2-methyl-5-(4-trifluoromethyl-pyridin-2-yl)-phenyl]-benzenesulfonamide]
500 to 1000 nM | Cc1ccc(S(=O)(=O)Nc2cc(-c3cccc(C(F)(F)F)n3)ccc2C)cc1 [Example 39, 4-Methyl-N-[2-methyl-5-(6-trifluoromethyl-pyridin-2-yl)-phenyl]-benzenesulfonamide]
1000 to 10000 nM | COc1ccc(S(=O)(=O)Nc2cc(-n3cc(C)cc3C)ccc2C)cc1 [Example 40, N-[5-(2,4-Dimethyl-pyrrol-1-yl)-2-methyl-phenyl]-4-methoxy-benzenesulfonamide]
500 to 1000 nM | COc1ccc(S(=O)(=O)Nc2cc(-n3cccc3C#N)ccc2C)cc1 [Example 41, N-[5-(2-Cyano-pyrrol-1-yl)-2-methyl-phenyl]-4-methoxy-benzenesulfonamide]
500 to 1000 nM | CC(=O)c1cccc(-c2ccc(C)c(NS(=O)(=O)c3ccc(C)cc3)c2)n1 [Example 42, N-[5-(6-Acetyl-pyridin-2-yl)-2-methyl-phenyl]-4-methyl-benzenesulfonamide]
< 500 nM | COc1ccc(-c2ccc(C)c(NS(=O)(=O)c3ccc(C)cc3)c2)nc1 [Example 44, N-[5-(5-Methoxy-pyridin-2-yl)-2-methyl-phenyl]-4-methyl-benzenesulfonamide]
